Laboratory results reported in the CheMixHub ionic liquid set.
± gives the uncertainty stated by the source.

Assay: xn = mol fraction of the nth substance listed

O=C([O-])CC(O)(CC(=O)[O-])C(=O)[O-].[Na+].[Na+].[Na+] + CCCCCCCCCCCC[N+](C)(C)C.[Br-] + O
298.15 K, 101 kPa
Conditions	electrical conductivity [S/m]
x1 = 0.0001801, x2 = 6.99e-05	0.2684 ± 0.0005
x1 = 0.0001801, x2 = 7.929e-05	0.2719 ± 0.0005
x1 = 0.0001801, x2 = 8.85e-05	0.2754 ± 0.0006
x1 = 0.0001801, x2 = 9.753e-05	0.2789 ± 0.0006
x1 = 0.0001801, x2 = 0.0001069	0.2823 ± 0.0006
x1 = 0.0001801, x2 = 0.0001161	0.2857 ± 0.0006
x1 = 0.0001801, x2 = 0.0001253	0.2892 ± 0.0006
x1 = 0.0001801, x2 = 0.0001344	0.2925 ± 0.0006
x1 = 0.0001801, x2 = 0.0001434	0.2957 ± 0.0006
x1 = 0.0001801, x2 = 0.0001524	0.2987 ± 0.0006
x1 = 0.0001801, x2 = 0.0001611	0.3009 ± 0.0006
x1 = 0.0001801, x2 = 0.0001696	0.3029 ± 0.0006
x1 = 0.0001801, x2 = 0.0001784	0.3047 ± 0.0006
x1 = 0.0001801, x2 = 0.0001916	0.3068 ± 0.0006
x1 = 0.0001801, x2 = 0.0002048	0.3082 ± 0.0006
x1 = 0.0001801, x2 = 0.0002178	0.3097 ± 0.0006
x1 = 0.0001801, x2 = 0.0002306	0.311 ± 0.0006
x1 = 0.0001801, x2 = 0.0002434	0.3121 ± 0.0006
x1 = 0.0001801, x2 = 0.0002561	0.3132 ± 0.0006
x1 = 0.0001801, x2 = 0.0002685	0.3143 ± 0.0006
x1 = 0.0001801, x2 = 0.000281	0.3154 ± 0.0006
x1 = 0.0001801, x2 = 0.0002933	0.3165 ± 0.0006
x1 = 0.0001801, x2 = 0.0003055	0.3176 ± 0.0006
x1 = 0.0001802, x2 = 0	0.2438 ± 0.0005
x1 = 0.0001802, x2 = 3.07e-06	0.2445 ± 0.0005
x1 = 0.0001802, x2 = 6.32e-06	0.2456 ± 0.0005
x1 = 0.0001802, x2 = 1.391e-05	0.2483 ± 0.0005
x1 = 0.0001802, x2 = 2.348e-05	0.2516 ± 0.0005
x1 = 0.0001802, x2 = 3.251e-05	0.2548 ± 0.0005
x1 = 0.0001802, x2 = 4.154e-05	0.258 ± 0.0005
x1 = 0.0001802, x2 = 5.076e-05	0.2614 ± 0.0005
x1 = 0.0001802, x2 = 6.015e-05	0.2648 ± 0.0005
x1 = 0.001798, x2 = 0.000148	1.558 ± 0.003
x1 = 0.001798, x2 = 0.0001666	1.562 ± 0.003
x1 = 0.001798, x2 = 0.0001847	1.565 ± 0.003
x1 = 0.001798, x2 = 0.0002029	1.569 ± 0.003
x1 = 0.001798, x2 = 0.0002206	1.573 ± 0.003
x1 = 0.001798, x2 = 0.0002383	1.576 ± 0.003
x1 = 0.001798, x2 = 0.0002559	1.579 ± 0.003
x1 = 0.001798, x2 = 0.000273	1.582 ± 0.003
x1 = 0.001798, x2 = 0.0002898	1.585 ± 0.003
x1 = 0.001798, x2 = 0.0003068	1.588 ± 0.003
x1 = 0.001798, x2 = 0.0003234	1.591 ± 0.003
x1 = 0.001798, x2 = 0.0003396	1.594 ± 0.003
x1 = 0.001798, x2 = 0.0003558	1.597 ± 0.003
x1 = 0.001798, x2 = 0.0003717	1.599 ± 0.003
x1 = 0.001798, x2 = 0.0003855	1.602 ± 0.003
x1 = 0.001798, x2 = 0.0004015	1.604 ± 0.003
x1 = 0.001798, x2 = 0.000417	1.607 ± 0.003
x1 = 0.001798, x2 = 0.000448	1.611 ± 0.003
x1 = 0.001799, x2 = 0	1.541 ± 0.003
x1 = 0.001799, x2 = 6.09e-06	1.538 ± 0.003
x1 = 0.001799, x2 = 1.458e-05	1.538 ± 0.003
x1 = 0.001799, x2 = 2.214e-05	1.539 ± 0.003
x1 = 0.001799, x2 = 2.989e-05	1.54 ± 0.01
x1 = 0.001799, x2 = 4.188e-05	1.542 ± 0.003
x1 = 0.001799, x2 = 5.738e-05	1.543 ± 0.003
x1 = 0.001799, x2 = 7.288e-05	1.544 ± 0.003
x1 = 0.001799, x2 = 9.225e-05	1.547 ± 0.003
x1 = 0.001799, x2 = 0.0001101	1.55 ± 0.01
x1 = 0.001799, x2 = 0.0001291	1.554 ± 0.003

CCCCO + CCCCCCCCCCCC[N+](C)(C)Cc1ccccc1.O=S(=O)([N-]S(=O)(=O)C(F)(F)F)C(F)(F)F
101 kPa, x2 = 0
Conditions	viscosity [mPa·s]
298.15 K	2.52 ± 0.25
308.15 K	1.98 ± 0.2
313.15 K	1.75 ± 0.17
343.15 K	0.92 ± 0.092
348.15 K	0.845 ± 0.085

[Cl-].[Cl-].[Co+2] + CCCCCCCC[N+](C)(CCCCCCCC)CCCCCCCC.[Cl-] + CCCCCCCC(=O)O
Conditions	viscosity [mPa·s]
296.1 K, 101.3 kPa, x2 = 0.4, x1 = 0.2	428 ± 36

[Cl-].[Cl-].[Co+2] + CCCCCCCC[N+](CCCCCCCC)(CCCCCCCC)CCCCCCCC.[Br-] + CCCCC/C=C\C/C=C\CCCCCCCC(=O)O
296.1 K, 101.3 kPa
Conditions	viscosity [mPa·s]
x2 = 0.4, x1 = 0.2	9700 ± 3100
x2 = 0.4286, x1 = 0.1429	2780 ± 520

[Cl-].[Cl-].[Co+2] + CCCCCCCC[N+](CCCCCCCC)(CCCCCCCC)CCCCCCCC.[Br-] + CCCCCCCC(=O)O
296.1 K, 101.3 kPa
Conditions	viscosity [mPa·s]
x2 = 0.2857, x1 = 0.1429	2615 ± 480
x2 = 0.4, x1 = 0.2	5700 ± 1400
x2 = 0.4286, x1 = 0.1429	7600 ± 2200

[Cl-].[Cl-].[Co+2] + CCCCCCCC[N+](CCCCCCCC)(CCCCCCCC)CCCCCCCC.[Br-] + CCCCCCCCCC(=O)O
Conditions	viscosity [mPa·s]
296.1 K, 101.3 kPa, x2 = 0.4, x1 = 0.2	55000

[Cl-].[Cl-].[Co+2] + CCCCCCCC[N+](CCCCCCCC)(CCCCCCCC)CCCCCCCC.[Br-] + Cc1ccc(C(C)C)c(O)c1
296.1 K, 101.3 kPa
Conditions	viscosity [mPa·s]
x2 = 0.4, x1 = 0.2	79000
x2 = 0.4286, x1 = 0.1429	48000

[Cl-].[Li+] + CCCCCCCCn1cc[n+](C)c1.N#C[S-] + CN1CCCC1=O
298.15 K, 101 kPa
Conditions	viscosity [mPa·s]
x2 = 0, x1 = 0.03756	2.607 ± 0.035
x2 = 0, x1 = 0.07175	3.558 ± 0.046
x2 = 0, x1 = 0.1044	4.958 ± 0.064

CCCCCCCCn1cc[n+](C)c1.F[B-](F)(F)F + CCCCCCCCn1cc[n+](C)c1.[Cl-]
101 kPa
Conditions	electrical conductivity [S/m]	viscosity [mPa·s]
303 K, x2 = 0	0.0817 ± 0.0066	–
303 K, x2 = 0.8	0.00551 ± 0.00045	–
303.15 K, x2 = 0	–	258 ± 78
303.15 K, x2 = 0.4	–	1093 ± 340
308 K, x2 = 0.8	0.00853 ± 0.0007	–
313 K, x2 = 0.6	0.0233 ± 0.0019	–
318 K, x2 = 0	0.172 ± 0.014	–
318 K, x2 = 0.2	0.106 ± 0.0086	–
318 K, x2 = 0.6	0.0327 ± 0.0027	–
318.15 K, x2 = 0.8	–	1486 ± 470
323 K, x2 = 0.6	0.0452 ± 0.0037	–
328 K, x2 = 0.2	0.17 ± 0.014	–
333 K, x2 = 0	0.322 ± 0.026	–
333.15 K, x2 = 0	–	61 ± 18

CCCCCCCCn1cc[n+](C)c1.O=[N+]([O-])[O-] + CCCCCCCCn1cc[n+](C)c1.[Cl-]
Conditions	viscosity [mPa·s]
293 K, 101 kPa, x2 = 0.3615	8500 ± 2500

CC(C)O + CCCCCC[N+](CC)(CC)CC.O=S(=O)([N-]S(=O)(=O)C(F)(F)F)C(F)(F)F
100 kPa, x1 = 1
Conditions	viscosity [mPa·s]
298.15 K	2.05 ± 0.21
303.15 K	1.73 ± 0.17
308.15 K	1.49 ± 0.15

[Cl-].[Li+] + CCCCCC[n+]1ccn(C)c1.N#C[S-] + CN1CCCC1=O
298.15 K, 101 kPa
Conditions	viscosity [mPa·s]
x2 = 0, x1 = 0.04156	2.626 ± 0.035
x2 = 0, x1 = 0.07132	3.558 ± 0.046
x2 = 0, x1 = 0.1038	4.959 ± 0.064

CC(C)O + CCCCCC[n+]1ccn(C)c1.O=S(=O)([N-]S(=O)(=O)C(F)(F)F)C(F)(F)F
100 kPa, x1 = 1
Conditions	viscosity [mPa·s]
293.15 K	2.42 ± 0.24
298.15 K	2.05 ± 0.21
303.15 K	1.73 ± 0.17
308.15 K	1.49 ± 0.15
313.15 K	1.34 ± 0.13
